Results: US20090018620A1, “METHOD FOR RESTORING AN E[…]” ([…], priority 2007, published 2009)
“Also recorded” adds a separate entry of the source.

Experiments:
LSt neurons [1] = assay: Muscimol injection into LSt neuron area 3.4 s after LSt neuron microstimulation, during ongoing rhythmic BS EMG activity (FIG. 4); format: in vivo, rat
Experimental: (§1) All procedures were in accordance with the European Communities Council Directives 86/609/EEC on the use of laboratory animals. Male adult sexually naïve Wistar rats (Janvier, Le Genest-St-Isle, France) of 275-325 grams, housed for at least 4 days in our animal facility before experimentation, were anesthetized with […] intraperitoneal urethane while body temperature was maintained at 37° C. with a homeothermic blanket. […] Custom-made bipolar steel wire electrodes (AS631, CoonerWire, CA, USA) were implanted into the exposed dorsal part of the right bulbospongiosus (BS) muscle. After suprapubic midline abdominal incision, a 1.1 mm diameter mineral oil-filled catheter was inserted into the lumen of the right seminal vesicle (SV) via its apex or the right vas deferens (VD) was cut and a 0.61 mm diameter catheter filled with isotonic salt solution inserted into the prostatic portion of the VD lumen. Then, the spine was exposed dorsally and fixed with a stereotaxic frame. Laminectomy was performed between vertebrae L1-T13 to expose […] spinal level and the dura was carefully removed. To improve intraspinal access, we incubated the spinal cord for 20 minutes with 3 units/μl collagenase type VII from Clostridium histolyticum (Sigma-Aldrich Chimie, St.Quentin Fallavier, France). To target T12 to L6 spinal levels in FIG. 2C, we performed 2-3 laminectomies on the same animal. Acute spinalization was performed through a complete spinal transection between T8 and T9 spinal levels one hour before microstimulation started. We performed bilateral sectioning of i) the hypogastric and pelvic nerves close to the major pelvic ganglion or iii) the dorsal nerves of the penis at the penile crus. A single experiment lasted 2 to 4 hours.
(§2) Monopolar spinal microstimulation was performed with a ‘Formvar’-coated nichrome wire of 50 μm diameter (AM-Systems Inc. WA, USA). Typically, the electrode was positioned on the dorsal surface at L4 spinal level, adjacent to the right of the dorsal spinal artery and lowered vertically with a hydraulic microdrive (Trent-Wells, Coulterville, Calif., USA) to ˜1600 μm depth in correspondence with the stereotaxic coordinates for laminae VII and X (S2), taking as electrode depth the read-out of the microdrive. A reference electrode was placed in the vicinity of the tail. Electrical stimuli were delivered using a pulse generator (model-2100, AM-Systems Inc. WA, USA). Biphasic rectangular current pulses of 0.5 ms duration applied in short trains of 60 to 100 pulses at 200 Hz for a total duration of 300 to 500 ms were applied. This stimulus was optimal without causing temporal overlap between stimulus and the SV/VD/BS muscle responses, according to preliminary experiments. […]

LSt neurons [2] = assay: Muscimol injection into LSt neuron area at L4 immediately before intraspinal microstimulation, BS EMG recording (FIG. 3); format: in vivo, rat
Experimental: as §1, §2

[3] = ~20 minutes after muscimol injection

With `NCc1cc(=O)[nH]o1` [muscimol] the “Time to full suppressive effect on BS EMG activity after muscimol injection” value (LSt neurons [1]; average of 5 animals, injection total duration 400 ms) was no more than 160 ± 120 ms, the “Rhythmic pattern of BS EMG activity, of the control response” value (LSt neurons [1]; muscimol applied 3.4 s after end of LSt neuron microstimulation, mean BS rEMG 0.3-15.3 s after injection, n=5, P<10^−5) was 2±2% and the “Effect on ongoing BS EMG activity (example experiment)” value (LSt neurons [1]; ~200 nl of 50 μM muscimol injected 3.4 s after microstimulation, LSt neuron area adjacent to electrode tip) was “completely interrupted the BS EMG activity; also recorded: rapidly turned off BS EMG activity”. For the same compound, the “BS EMG response to microstimulation after recovery period” value (LSt neurons [1]; [3]) was “partial response recovery”, the “BS EMG activity following microstimulation, of the control response” value (LSt neurons [2]; anesthetized rats, 50 μM muscimol injected at L4 near electrode tip, microstimulation immediately after, n=5, P<10^−5) was 6±5% and the “BS EMG activity during the time of microstimulation (unrelated to the ejaculation response) in the presence of muscimol as compared to controls” value (LSt neurons [2]; anesthetized rats, n=5, P=0.07) was 58±25%. For the same compound, the “Effect on BS EMG activity evoked by second identical microstimulation (example experiment)” value (LSt neurons [2]; ~200 nl of 50 μM muscimol in the vicinity of the electrode tip, immediately before microstimulation) was “abolished BS EMG activity” and the “BS EMG response to third microstimulation (recovery)” value (LSt neurons [2]; [3]) was “partial response recovery”.
